# Measurements taken from patent US8691799B2, “Materials and methods for treatment of cancer and identification of anti-cancer compounds” (priority 2001, dated 2014).
# Assays:
# JAK2 = target: T1, JAK2 (Homo sapiens, UniProt O60674); assay: JAK kinase autophosphorylation assay on immunoprecipitates (JAK2); assay type: biochemical; conditions: immunoprecipitates from A549, MDA-MB-468 or v-Src/NIH 3T3 cells; AG490 100 μM, PD180970 2 μM
# T1 construct: Src, JAK1, and JAK2 were immunoprecipitated from either A549, MDA-MB-468, or v-Src/NIH 3T3 cells; endogenous in cells; host or cells: A549, MDA-MB-468, v-Src transformed NIH 3T3 (immunoprecipitates)
# T1 sequence (O60674 whole entry): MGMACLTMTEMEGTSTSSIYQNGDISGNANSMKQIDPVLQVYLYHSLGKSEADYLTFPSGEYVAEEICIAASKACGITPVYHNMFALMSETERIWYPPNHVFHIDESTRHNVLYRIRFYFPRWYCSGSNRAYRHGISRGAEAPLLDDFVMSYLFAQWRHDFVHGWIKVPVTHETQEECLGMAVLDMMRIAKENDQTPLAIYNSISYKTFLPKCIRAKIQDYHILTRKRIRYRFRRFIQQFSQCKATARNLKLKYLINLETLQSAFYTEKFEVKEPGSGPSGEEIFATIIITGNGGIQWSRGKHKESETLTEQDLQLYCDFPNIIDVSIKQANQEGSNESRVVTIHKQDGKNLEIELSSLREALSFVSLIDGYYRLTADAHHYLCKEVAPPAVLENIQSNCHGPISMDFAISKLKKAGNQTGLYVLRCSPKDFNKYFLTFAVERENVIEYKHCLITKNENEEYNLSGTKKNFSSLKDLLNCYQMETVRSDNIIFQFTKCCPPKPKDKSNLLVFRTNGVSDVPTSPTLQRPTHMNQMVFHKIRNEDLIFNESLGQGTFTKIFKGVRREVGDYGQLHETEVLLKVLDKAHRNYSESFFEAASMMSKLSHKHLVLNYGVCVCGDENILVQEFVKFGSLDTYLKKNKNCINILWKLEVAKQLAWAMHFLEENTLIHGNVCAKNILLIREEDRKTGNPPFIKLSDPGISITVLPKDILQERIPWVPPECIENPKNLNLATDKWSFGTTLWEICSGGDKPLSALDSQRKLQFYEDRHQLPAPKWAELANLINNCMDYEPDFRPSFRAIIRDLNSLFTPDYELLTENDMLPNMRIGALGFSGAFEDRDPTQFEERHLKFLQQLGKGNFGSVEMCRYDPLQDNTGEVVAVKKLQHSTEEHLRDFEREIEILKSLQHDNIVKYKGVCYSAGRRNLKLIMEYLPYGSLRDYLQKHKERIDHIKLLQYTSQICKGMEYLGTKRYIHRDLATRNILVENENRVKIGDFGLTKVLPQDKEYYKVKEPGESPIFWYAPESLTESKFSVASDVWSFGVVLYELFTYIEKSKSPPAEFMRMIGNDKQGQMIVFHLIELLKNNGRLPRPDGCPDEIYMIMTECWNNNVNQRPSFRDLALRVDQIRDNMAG
# Experimental: JAK Kinase Assays. A549, MDA-MB-468, and v-Src transformed NIH 3T3 cells were harvested, washed three times in PBS-V (10 mM sodium phosphate, pH 7.4, 137 mM NaCl, 1 mM sodium orthovanadate) then lysed for 30 min on ice in JAK kinase lysis buffer (25 mM Hepes, pH 7.4, 0.1% Triton-X-100, 0.5 mM DTT, 1 mM sodium orthovanadate, 1 mM PMSF, 10 μg/ml aprotinin, 10 μg/ml leupeptin). Samples were spun at high speed to clear, and 800-1000 μg of protein was immunoprecipitated per treatment condition with 50 ng of either JAK1 or JAK2 antibody (Santa Cruz Biotechnology) rocking overnight at 4° C. 25 μl of protein A/G PLUS agarose then was added and rocking continued for 1 hr at 4° C. Samples were spun to collect agarose pellet, and pellet washed twice in wash buffer (50 mM Hepes, pH 7.4, 0.1% Triton-X-100, 0.5 mM DTT, 150 mM NaCl) and once in phosphorylation buffer (50 mM Hepes, pH 7.4, 0.1% Triton-X-100, 0.5 mM DTI, 6.25 mM manganese chloride, 100 mM NaCl). Kinase reactions were performed at 30° C. for 15 min in a final volume of 100 μl of phosphorylation buffer. Samples were pretreated with DMSO control, JSI-124, and control compounds (AG490, 100 μM, and […], 2 μM) before addition of 20 μCi/sample y-[^32P]ATP. Reaction was halted using stop buffer (wash buffer plus 10 mM EDTA), samples spun to collect pellet, then pellet washed once with stop buffer and twice with wash buffer. Samples were then placed in 2×SDS-PAGE sample buffer, boiled at 100° C., and run on 8% SDS-PAGE gels to separate proteins. Autophosphorylation results were visualized by autoradiography.
# phospho-JNK = assay: Western blotting for phospho-JNK; assay type: cell-based, human; conditions: A549 and MDA-MB-468 cells, up to 10 μM
# Experimental: (§1) Western Blotting. Treated cell samples were lysed in 30 mM Hepes, pH 7.5, 10 mM NaCl, 5 mM MgCl2, 25 mM NaF, 1 mM EGTA, 1% Triton-X-100, 10% glycerol, 2 mM sodium orthovanadate, 10 μg/ml aprotinin, 10 μg/ml soybean trypsin inhibitor, 25 μg/ml leupeptin, 2 mM PMSF, and 6.4 mg/ml p-nitrophenylphosphate. Phospho-STAT3, phospho-AKT, phospho-MEK, and phospho-p42/p44 MAPK antibodies were obtained from Cell Signaling Technologies, Cambridge, Mass. Antibodies to STAT3, JAK2, and phospho-INK were purchased from Santa Cruz Biotechnology, Santa Cruz, Calif. Phospho-JAK2 antibody came from Upstate Biotechnology, Lake Placid, N.Y. Membranes were blocked in either 5% milk in PBS, pH 7.4, containing 0.1% Tween-20 (PBS-T) or 1% BSA in TBS, pH 7.5, containing 0.1% Tween-20 (TBS-T). Phospho-specific antibodies (excepting P-MAPK and P-JNK) were incubated in 1% BSA in TBS-T while all other antibodies were diluted in 5% milk in PBS-T for either 2 hr at room temperature or overnight at 4° C. HRP-conjugated secondary antibodies (Jackson ImmunoResearch) were diluted in 5% milk in either PBS-T or TBS-T at 1:1000 dilution for one hour at room temperature. Western blots were visualized using enhanced chemiluminescence as described previously (Blaskovich, M. A. et al. Nat. Biotechnol., 2000, 18:1065-1070).
# [1] = Tolerability observations in treated mice; assay type: in vivo
# Text: (§2) Antitumor Activity in the Nude Mouse Tumor Xenograft Model. Nude mice and C57 BL-6 black mice (National Cancer Institute, Bethesda, Md.) were maintained in accordance with the Institutional Animal Care and Use Committee (IACUC) procedures and guidelines. v-Src- and oncogenic H-Ras-transformed NIH 3T3, A549, MDA-MB-468 and Calu-1 cells were harvested, resuspended in PBS and injected s.c. into the right and left flank (10×10^6 cells per flank) of 8 week old female nude mice as reported previously (Sun, J. et al. Cancer Res., 1999, 59:4919-4926). Similarly, murine B16-F10 Melanoma cells were injected s.c. into the right and left flank (10^6 cells per flank) of C57 black mice. When tumors reached about 150 mm^3, animals were randomized (five animals per group; two tumors per animal) and dosed i.p. with 0.2 ml once daily. […] The tumor volumes were determined by measuring the length (l) and the width (w) and calculating the volume (V=1w^2/2) as described previously (Sun, J. et al. Cancer Res., 1999, 59:4919-4926). Statistical significance between control and treated animals were evaluated by using Student's t-test. For the mouse survival experiments, C57 BL-6 black mice were implanted s.c. with B16-F10 cells (10^5 to 10^6 cells per flank). On day 5 after implantation the mice were randomized (6 animals per group) and treated with either vehicle or JSI-124 (1 mg/Kg/day) for 25 days. Percent surviving mice was determined by monitoring the death of mice until all mice died. Two experiments of 12 animals each (6 control and 6 treated with JSI-124) were carried out. For statistical analysis: for each of the two experiments, mice receiving JSI-124 were compared to those receiving vehicle control with respect to survival using the permutation log rank test as implemented in the statistical software package, ProcStatXact (p-values are two sided and exact).
# STAT3 = assay: Western blotting for STAT3 protein levels; assay type: cell-based, human; conditions: A549 and MDA-MB-468 cells
# Experimental: as §1
# Immunoprecipitation of STAT3. […]
# A549 tumors = assay: Antitumor activity, A549 xenograft in nude mice; assay type: in vivo
# Text: as §2, with “On day 5 after implantation the mice were randomized (6 animals per group) and treated with either vehicle or JSI-124 (1 mg/Kg/day) for 25 days.” left out, “Two experiments of 12 animals each (6 control and 6 treated with JSI-124) were carried out. For statistical analysis: for each of the two experiments, mice receiving JSI-124 were compared to those receiving vehicle control with respect to survival using the permutation log rank test as implemented in the statistical software package, ProcStatXact (p-values are two sided and exact).” left out
structure (smiles),measurement,setting,value
"CC(C)(O)/C=C/C(=O)[C@](C)(O)[C@H]1[C@H](O)C[C@@]2(C)[C@@H]3CC=C4[C@@H](C=C(O)C(=O)C4(C)C)[C@]3(C)C(=O)C[C@]12C [JSI-124, cucurbitacin I]",JAK2 kinase activity (autophosphorylation) in vitro,JAK2,not affected
same,phospho-JNK levels,phospho-JNK,no inhibitory effect
same,"effects on body weight, activity or food intake of mice",[1]; 1 mg/kg/day and 0.5 mg/kg/day i.p.,"no effects on body weight, activity or food intake"
same,edema at the local site of drug injection (peritoneal cavity),[1]; 1 mg/kg/day i.p.,caused edema
same,STAT3 protein levels,STAT3,no effect on the protein levels of STAT3 and JAK2
same,"inhibition of A549 tumor growth, reduced dose","A549 tumors; 0.5 mg/kg/day for 23 days, nude mice (data not shown)",52%
same,inhibition of A549 tumor growth,"A549 tumors; 1 mg/kg/day i.p., nude mice",76%
